According to patent US20240108601A1, “TREATMENT OF MENTAL DISORDERS” (GH Research Ireland Limited, priority 2022, published 2024):

Tests used:
[1] = tested on: human hepatocytes (Hμrel HumanPool co-culture); test: Metabolic stability in Hμrel human hepatocyte co-culture
[2] = as above; details: human
human hepatocytes = test: Metabolite identification in human hepatocyte suspension; details: 5-MeO-DMT free base 10 μM, incubated up to 120 minutes
Method: For incubations with cryopreserved hepatocytes, the 2 mM stock solution was diluted with Leibovitz L-15 medium to a concentration of 20 μM or 2 μM. An aliquot (250 μL) of the 20 μM and 2 μM test substance formulations was added to each hepatocyte incubation sample (250 μL), as appropriate, so that the final test substance concentration in the incubations was 10 μM or 1 μM, respectively, and incubations contained less than 1% (v/v) solvent.
Incubations were performed at ca. 37° C. in a shaking water bath (total incubation volume 0.5 mL). For 1 μM, incubations were terminated after 0, 5, 10, 20, 30, 60 and 120 minutes, by the addition of ice-cold acetonitrile (0.5 mL).
The samples were vortex mixed and centrifuged at ca 13,000 rpm for 10 minutes at room temperature. Following centrifugation, the protein-free supernatants were removed for analysis.
Blank control incubations were carried out with Leibovitz L-15 medium in place of the test substance. No cells control samples were performed with Leibovitz L-15 medium in place of hepatocytes. Aliquots of the blank control samples were taken at 120 minutes, while no cells control samples were taken at 0, 30 and 120 for 1 μM incubations and at 0 and 120 minutes for 10 μM incubations.
All 1 μM incubations were performed in duplicate, while all 10 μM incubations were performed in singlet. All samples were stored at −80° C. (nominal) prior to analysis.
Prior to sample analysis a 100 μL aliquot of each sample was evaporated to near dryness under a steady stream of nitrogen at room temperature, and subsequently reconstituted in 50 μL of mobile phase A (0.1% formic acid in water). Each sample (0, 30 and 120-minute, 10 μM) was analysed using accurate mass LC-MS to determine relative levels of parent compound at each time-point, and determine the profile of metabolites formed. Appropriate blank and control samples were also analysed. The 10 and 60-minute, 10 μM incubation samples were not analysed and were stored at −80° C. (nominal). […]

5-HT2A receptors = biological target: T1, 5-HT2A receptors (Homo sapiens, UniProt P28223); test: Radioligand ([3H]MDL-100,907) binding to 5-HT2A receptors in post-mortem human frontal cortex membranes
T1 construct: frontal cortical membranes (400 μl; equivalent 4 mg wet weight tissue/tube) was incubated with 50 μl of 0.1 nM; tissue Edinburgh Sudden Death Brain Bank; host or cells: post-mortem human frontal cortex membranes

5-HT1A receptors = biological target: T2, 5-HT1A receptors (Homo sapiens, UniProt P08908); test: Radioligand ([3H]8-OH-DPAT) binding to 5-HT1A receptors in post-mortem human hippocampus membranes
T2 construct: hippocampal membranes (400 μl; equivalent 1.25 mg wet weight tissue/tube) were incubated with 50 μl of 0.6 nM; tissue Edinburgh Sudden Death Brain Bank; host or cells: post-mortem human hippocampus membranes
T2 sequence (P08908 1-422): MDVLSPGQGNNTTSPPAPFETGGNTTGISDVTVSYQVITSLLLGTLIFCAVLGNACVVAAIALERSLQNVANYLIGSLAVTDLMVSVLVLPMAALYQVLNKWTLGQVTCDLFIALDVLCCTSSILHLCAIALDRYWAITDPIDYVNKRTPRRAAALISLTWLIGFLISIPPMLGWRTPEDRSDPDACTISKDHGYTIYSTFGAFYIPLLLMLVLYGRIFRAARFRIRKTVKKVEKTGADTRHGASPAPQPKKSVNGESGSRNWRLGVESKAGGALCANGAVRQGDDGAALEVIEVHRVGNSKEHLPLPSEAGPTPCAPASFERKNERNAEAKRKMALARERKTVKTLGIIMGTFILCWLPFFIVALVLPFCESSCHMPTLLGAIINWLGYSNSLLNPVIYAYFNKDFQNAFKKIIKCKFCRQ

T1 sequence (P28223 whole entry): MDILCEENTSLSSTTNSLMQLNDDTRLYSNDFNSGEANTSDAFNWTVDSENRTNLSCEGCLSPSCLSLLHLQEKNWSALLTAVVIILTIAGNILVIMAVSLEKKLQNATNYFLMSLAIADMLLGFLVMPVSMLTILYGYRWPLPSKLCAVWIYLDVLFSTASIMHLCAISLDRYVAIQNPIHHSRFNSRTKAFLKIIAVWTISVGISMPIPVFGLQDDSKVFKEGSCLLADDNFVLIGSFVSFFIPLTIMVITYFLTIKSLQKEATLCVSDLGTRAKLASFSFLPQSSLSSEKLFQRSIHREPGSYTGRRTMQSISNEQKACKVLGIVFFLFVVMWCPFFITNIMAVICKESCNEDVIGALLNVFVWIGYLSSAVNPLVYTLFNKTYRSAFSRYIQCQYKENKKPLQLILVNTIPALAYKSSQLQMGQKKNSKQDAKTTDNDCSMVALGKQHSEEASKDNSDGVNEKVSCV

COc1ccc2[nH]cc(CCO)c2c1 [5-methoxytryptophol, 5-Methoxyindole-3-ethanol]
Disappearance with stromal cell controls ([1]; 0-72 h): no disappearance | Relative LC/MS peak area remaining ([1]; 1 μM Hepatocytes, 0 h): 100% | Relative LC/MS peak area remaining ([1]; 1 μM Hepatocytes, 1 h): 79% | Relative LC/MS peak area remaining ([1]; 1 μM Hepatocytes, 2 h): 57% | Relative LC/MS peak area remaining ([1]; 1 μM Hepatocytes, 4 h): 33% | Relative LC/MS peak area remaining ([1]; 1 μM Hepatocytes, 8 h): 10% | Relative LC/MS peak area remaining ([1]; 1 μM Hepatocytes, 24 h): 0% | Relative LC/MS peak area remaining ([1]; 1 μM Hepatocytes, 48 h): 0% | Relative LC/MS peak area remaining ([1]; 1 μM Hepatocytes, 72 h): 0% | Relative LC/MS peak area remaining ([1]; 1 μM Stromal cells, 0 h): 100% | Relative LC/MS peak area remaining ([1]; 1 μM Stromal cells, 4 h): 97% | Relative LC/MS peak area remaining ([1]; 1 μM Stromal cells, 8 h): 107% | Relative LC/MS peak area remaining ([1]; 1 μM Stromal cells, 24 h): 94% | Relative LC/MS peak area remaining ([1]; 1 μM Stromal cells, 48 h): 102% | Relative LC/MS peak area remaining ([1]; 1 μM Stromal cells, 72 h): 104% | Relative LC/MS peak area remaining ([1]; 10 μM Hepatocytes, 0 h): 100% | Relative LC/MS peak area remaining ([1]; 10 μM Hepatocytes, 1 h): 87% | Relative LC/MS peak area remaining ([1]; 10 μM Hepatocytes, 2 h): 81% | Relative LC/MS peak area remaining ([1]; 10 μM Hepatocytes, 4 h): 68% | Relative LC/MS peak area remaining ([1]; 10 μM Hepatocytes, 8 h): 42% | Relative LC/MS peak area remaining ([1]; 10 μM Hepatocytes, 24 h): 1% | Relative LC/MS peak area remaining ([1]; 10 μM Hepatocytes, 48 h): 0% | Relative LC/MS peak area remaining ([1]; 10 μM Hepatocytes, 72 h): 0% | Relative LC/MS peak area remaining ([1]; 10 μM Stromal cells, 0 h): 100% | Relative LC/MS peak area remaining ([1]; 10 μM Stromal cells, 4 h): 99% | Relative LC/MS peak area remaining ([1]; 10 μM Stromal cells, 8 h): 105% | Relative LC/MS peak area remaining ([1]; 10 μM Stromal cells, 24 h): 86% | Relative LC/MS peak area remaining ([1]; 10 μM Stromal cells, 48 h): 98% | Relative LC/MS peak area remaining ([1]; 10 μM Stromal cells, 72 h): 104% | Metabolic turnover in the presence of hepatocytes ([1]; 24h): complete disappearance | Predicted hepatic extraction ratio ([1]; human): 67% | half-life at 1 µM [2]: 2.37 h | hepatocyte CLint at 1 µM [2]: 16.2 µL/min/1e6 cells | Relative Proportion of compounds identified (human hepatocytes): 25%

CN(C)CCc1c[nH]c2ccccc12 [DMT, N,N-dimethyltryptamine]
Ki (5-HT2A receptors): 117 nM

CN(C)CCc1c[nH]c2cccc(O)c12 [psilocin]
Ki (5-HT1A receptors): 48 nM
